Experimental data taken from patent publication US11851449B2, “Heterocyclic amide compounds having an RORvt inhibitory action” (TAKEDA PHARMACEUTICAL COMPANY LIMITED, priority 2013, dated 2023).

What was measured:
[1] = target: T1, RORγt (Homo sapiens, UniProt P51449); assay: RORγt binding test (TR-FRET, fluorescent-labeled cholesterol); conditions: read-out: binding inhibitory rate (%) of fluorescent-labeled cholesterol to RORγt at test compound 1 μM
T1 sequence (P51449 1-497 isoform P51449-2): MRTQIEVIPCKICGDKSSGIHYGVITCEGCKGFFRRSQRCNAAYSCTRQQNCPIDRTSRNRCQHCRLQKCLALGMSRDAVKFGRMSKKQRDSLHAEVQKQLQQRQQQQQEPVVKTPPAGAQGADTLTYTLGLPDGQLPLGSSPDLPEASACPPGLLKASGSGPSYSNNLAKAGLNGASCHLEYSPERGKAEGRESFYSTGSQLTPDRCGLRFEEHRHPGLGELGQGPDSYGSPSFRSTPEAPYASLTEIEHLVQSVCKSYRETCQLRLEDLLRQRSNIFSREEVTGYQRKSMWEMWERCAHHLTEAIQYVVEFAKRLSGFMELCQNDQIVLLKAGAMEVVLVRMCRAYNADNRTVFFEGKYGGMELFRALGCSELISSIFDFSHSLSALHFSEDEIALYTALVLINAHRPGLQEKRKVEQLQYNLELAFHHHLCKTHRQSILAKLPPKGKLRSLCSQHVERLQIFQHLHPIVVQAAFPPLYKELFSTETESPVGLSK
Procedure, shortened: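 His-tagged RORγt and BODIPY-cholesterol were incubated with compound for 20 min at room temperature in Tris-HCl pH 7.5, 100 mM NaCl, 1 mM DTT and 0.1% BSA. Terbium anti-His antibody was then added for a further 20 min.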

[2] = target: T1, RORγt; assay: Cofactor recruitment test (Alpha Screen, biotinylated SRC-1 peptide); type: biochemical; conditions: read-out: signal value inhibitory rate (%) at test compound 1 μM
Experimental: Cofactor Recruitment Test
Cofactor recruitment test was performed by Alpha Screen (Histidine Detection Kit, PerkinElmer) method. First, a test compound was diluted with an assay buffer (50 mM Tris-HCl (pH 7.5), 50 mM KCl, 1 mM DTT, 0.1% BSA) and added to a 384 well plate by 5 μL. […] The mixture was stood in a dark place for 1 hr, and the signal value was measured by Envision (PerkinElmer).

[3] = target: T1, RORγt; assay: Jurkat reporter test (human IL-17 ROR response element luciferase reporter); type: cell-based; conditions: Jurkat, read-out: luminescence level inhibitory rate (%) at test compound 3 μM
Procedure, shortened: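 Luminescence (Bright-Glo, 10 min, RT) was measured after overnight compound treatment of electroporated Jurkat cells (1350 V, 10 ms interval, 3 pulses). The reaction medium was RPMI with 10% lipid-reduced FCS, 10 mM HEPES (pH 7.5) and 5 μM lovastatin.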

Structure (SMILES)	inhibition at 1 µM [1]	inhibition at 1 µM [2]	inhibition at 3 µM [3]
COCc1ccc([C@@H](NC(=O)Cn2ccc(=O)[nH]c2=O)C(=O)Nc2ccc([Si](C)(C)C)c(F)c2)cc1 [Example 59, (2R)-2-(((2,4-dioxo-3,4-dihydropyrimidin-1(2H)-yl)acetyl)amino)-N-(3-fluoro-4-(trimethylsilyl)phenyl)-2-(4-(methoxymethyl)phenyl)acetamide]	102%	96%	99.2%
COCc1ccc([C@@H](NC(=O)Cn2c(=O)cc[nH]c2=O)C(=O)Nc2ccc([Si](C)(C)C)c(F)c2)cc1 [Example 60, (2R)-2-(((2,6-dioxo-3,6-dihydropyrimidin-1 (2H)-yl)acetyl)amino)-N-(3-fluoro-4-(trimethylsilyl)phenyl)-2-(4-(methoxymethyl)phenyl)acetamide]	102%	96.6%	99.7%
COCc1ccc([C@@H](NC(=O)Cn2nc(C)ccc2=O)C(=O)Nc2cc(F)c([Si](C)(C)C)c(F)c2)cc1 [Example 61, (2R)—N-(3,5-difluoro-4-(trimethylsilyl)phenyl)-2-(4-(methoxymethyl)phenyl)-2-(((3-methyl-6-oxopyridazin-1(6H)-yl)acetyl)amino)acetamide]	102%	97%	100%
COCc1ccc([C@@H](NC(=O)CN2C(=O)CNC2=O)C(=O)Nc2ccc([Si](C)(C)C)c(F)c2)cc1 [Example 62, (2R)-2-(((2,5-dioxoimidazolidin-1-yl)acetyl)amino)-N-(3-fluoro-4-(trimethylsilyl)phenyl)-2-(4-(methoxymethyl)phenyl)acetamide]	99.9%	96.3%	97.8%
COCc1ccc([C@@H](NC(=O)Cn2ccc(=O)cn2)C(=O)Nc2ccc([Si](C)(C)C)c(F)c2)cc1 [Example 63, (2R)—N-(3-fluoro-4-(trimethylsilyl)phenyl)-2-(4-(methoxymethyl)phenyl)-2-(((4-oxopyridazin-1(4H)-yl)acetyl)amino)acetamide]	103%	95.1%	99.7%
COc1ccc([C@@H](NC(=O)N2CC[C@H](O)C2)C(=O)Nc2ccc([Si](C)(C)C)c(F)c2)cc1 [Example 64, (3S)—N-((1R)-2-((3-fluoro-4-(trimethylsilyl)phenyl)amino)-1-(4-methoxyphenyl)-2-oxoethyl)-3-hydroxypyrrolidine-1-carboxamide]	102%	90.1%	98.7%
COCc1ccc([C@@H](NC(=O)N2CC[C@H](O)C2)C(=O)Nc2ccc([Si](C)(C)C)c(F)c2)cc1 [Example 65, (3S)—N-((1R)-2-((3-fluoro-4-(trimethylsilyl)phenyl)amino)-1-(4-(methoxymethyl)phenyl)-2-oxoethyl)-3-hydroxypyrrolidine-1-carboxamide]	102%	94.3%	98.5%
COCc1ccc([C@@H](NC(=O)N2CC[C@@H](O)C2)C(=O)Nc2ccc([Si](C)(C)C)c(F)c2)cc1 [Example 66, (3R)—N-((1R)-2-((3-fluoro-4-(trimethylsilyl)phenyl)amino)-1-(4-(methoxymethyl)phenyl)-2-oxoethyl)-3-hydroxypyrrolidine-1-carboxamide]	103%	94.6%	98.5%
COCc1ccc([C@@H](NC(=O)Cc2nnc(C)o2)C(=O)Nc2ccc([Si](C)(C)C)c(F)c2)cc1 [Example 67, (2R)—N-(3-fluoro-4-(trimethylsilyl)phenyl)-2-(4-(methoxymethyl)phenyl)-2-(((5-methyl-1,3,4-oxadiazol-2-yl)acetyl)amino)acetamide]	103%	96%	98.5%
COCc1ccc([C@@H](NC(=O)[C@H]2CNC(=O)C2)C(=O)Nc2cc(F)c([Si](C)(C)C)c(F)c2)cc1 [Example 68, (3R)—N-((1R)-2-((3,5-difluoro-4-(trimethylsilyl)phenyl)amino)-1-(4-(methoxymethyl)phenyl)-2-oxoethyl)-5-oxopyrrolidine-3-carboxamide]	101%	96.2%	98.7%
COCc1ccc([C@@H](NC(=O)N2CC(O)C2)C(=O)Nc2ccc([Si](C)(C)C)c(F)c2)cc1 [Example 69, N-((1R)-2-((3-fluoro-4-(trimethylsilyl)phenyl)amino)-1-(4-(methoxymethyl)phenyl)-2-oxoethyl)-3-hydroxyazetidine-1-carboxamide]	103%	96.8%	98.4%
COc1ccc([C@@H](NC(=O)[C@H]2CNC(=O)C2)C(=O)Nc2ccc([Si](C)(C)C)c(F)c2)cc1 [Example 70, (3R)—N-((1R)-2-((3-fluoro-4-(trimethylsilyl)phenyl)amino)-1-(4-methoxyphenyl)-2-oxoethyl)-5-oxopyrrolidine-3-carboxamide]	101%	82.8%	96.5%
COc1ccc([C@@H](NC(=O)N2CC[C@@H](O)C2)C(=O)Nc2ccc([Si](C)(C)C)c(F)c2)cc1 [Example 71, (3R)—N-((1R)-2-((3-fluoro-4-(trimethylsilyl)phenyl)amino)-1-(4-methoxyphenyl)-2-oxoethyl)-3-hydroxypyrrolidine-1-carboxamide]	101%	89.9%	99%
COCc1ccc([C@@H](NC(=O)CCO)C(=O)Nc2cc(F)c([Si](C)(C)C)c(F)c2)cc1 [Example 72, N-((1R)-2-((3,5-difluoro-4-(trimethylsilyl)phenyl)amino)-1-(4-(methoxymethyl)phenyl)-2-oxoethyl)-3-hydroxypropanamide]	102%	96.7%	99.2%
COCc1ccc([C@@H](NC(=O)CCC#N)C(=O)Nc2cc(F)c([Si](C)(C)C)c(F)c2)cc1 [Example 73, 3-cyano-N-((1R)-2-((3,5-difluoro-4-(trimethylsilyl)phenyl)amino)-1-(4-(methoxymethyl)phenyl)-2-oxoethyl)propanamide]	103%	96.7%	97.9%
COCc1ccc([C@@H](NC(=O)Cc2nnc(C)o2)C(=O)Nc2cc(F)c([Si](C)(C)C)c(F)c2)cc1 [Example 74, (2R)—N-(3,5-difluoro-4-(trimethylsilyl)phenyl)-2-(4-(methoxymethyl)phenyl)-2-(((5-methyl-1,3,4-oxadiazol-2-yl)acetyl)amino)acetamide]	101%	97.6%	99.4%
COCc1ccc([C@@H](NC(=O)Cc2cc(O)no2)C(=O)Nc2ccc([Si](C)(C)C)c(F)c2)cc1 [Example 75, (2R)—N-(3-fluoro-4-(trimethylsilyl)phenyl)-2-(((3-hydroxy-1,2-oxazol-5-yl)acetyl)amino)-2-(4-(methoxymethyl)phenyl)acetamide]	102%	95.8%	99.7%
COCc1ccc([C@@H](NC(=O)Cc2cc(O)no2)C(=O)Nc2cc(F)c([Si](C)(C)C)c(F)c2)cc1 [Example 76, (2R)—N-(3,5-difluoro-4-(trimethylsilyl)phenyl)-2-(((3-hydroxy-1,2-oxazol-5-yl)acetyl)amino)-2-(4-(methoxymethyl)phenyl)acetamide]	103%	98.5%	99.3%
COCc1ccc([C@H](C(=O)Nc2cc(F)c([Si](C)(C)C)c(F)c2)N(C)C(=O)c2cc(O)no2)cc1 [Example 77, N-((1R)-2-((3,5-difluoro-4-(trimethylsilyl)phenyl)amino)-1-(4-(methoxymethyl)phenyl)-2-oxoethyl)-3-hydroxy-N-methyl-1,2-oxazole-5-carboxamide]	103%	97.3%	99.7%
COCc1ccc([C@@H](NC(=O)Cn2ccc(=O)cc2)C(=O)Nc2ccc([Si](C)(C)C)c(F)c2)cc1 [Example 78, (2R)—N-(3-fluoro-4-(trimethylsilyl)phenyl)-2-(4-(methoxymethyl)phenyl)-2-(((4-oxopyridin-1(4H)-yl)acetyl)amino)acetamide]	102%	93.2%	96%
